Source: ChEMBL document CHEMBL1926525 (Bioorg Med Chem Lett, 2011)

What was measured:
[1] = target: Dihydroorotate dehydrogenase (quinone), mitochondrial (Homo sapiens, UniProt Q02127); experiment: Inhibition of human dihydroorotate dehydrogenase
[2] = Half life in rat at 1 mg/kg, iv; type: ADME, organism-based; parameters: dose 1 mg/kg, route intravenous; details: in vivo
[3] = Half life in human plasma; type: ADME, organism-based
[4] = test system: Rattus norvegicus; experiment: Antiinflammatory activity in rat Freund's adjuvant induced-arthritis model assessed as inhibition of paw edema at 10 mg/kg qd administered 10 days post challenge for 10 consecutive days; type: functional; details: 240 h
[5] = target: Dihydroorotate dehydrogenase (quinone), mitochondrial (Rattus norvegicus, UniProt Q63707); experiment: Inhibition of rat dihydroorotate dehydrogenase
[6] = test system: PBMC; experiment: Antiproliferative activity against PHA-stimulated human PBMC assessed as inhibition of […] after 72 hrs by BrdU-ELISA assay; type: functional, cell-based
[7] = Metabolic stability in rat microsomes assessed as compound degradation at 5 uM after 30 mins; type: ADME, Microsome; details: read-out: Drug metabolism
[8] = Metabolic stability in human microsomes assessed as compound degradation at 5 uM after 30 mins; type: ADME, Microsome; details: read-out: Drug metabolism
[9] = test system: Rattus norvegicus; experiment: Antiinflammatory activity in rat Freund's adjuvant induced-arthritis model assessed as inhibition of paw edema administered 10 days post challenge once daily for 10 days; type: functional; details: 240 h

Chain of Dihydroorotate dehydrogenase (quinone), mitochondrial (Homo sapiens, UniProt Q02127) (Q02127 whole entry): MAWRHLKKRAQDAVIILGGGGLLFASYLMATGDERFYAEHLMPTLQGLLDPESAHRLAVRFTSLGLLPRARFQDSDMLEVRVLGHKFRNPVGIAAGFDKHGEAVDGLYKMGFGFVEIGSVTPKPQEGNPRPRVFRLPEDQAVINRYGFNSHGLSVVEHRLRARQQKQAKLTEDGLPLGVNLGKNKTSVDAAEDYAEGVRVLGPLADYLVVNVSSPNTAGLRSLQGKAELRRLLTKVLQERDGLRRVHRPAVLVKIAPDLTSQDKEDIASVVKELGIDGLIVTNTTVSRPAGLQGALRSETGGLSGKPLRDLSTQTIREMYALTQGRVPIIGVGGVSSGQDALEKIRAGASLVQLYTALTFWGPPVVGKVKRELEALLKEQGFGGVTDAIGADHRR
Chain of Dihydroorotate dehydrogenase (quinone), mitochondrial (Rattus norvegicus, UniProt Q63707) (Q63707 whole entry): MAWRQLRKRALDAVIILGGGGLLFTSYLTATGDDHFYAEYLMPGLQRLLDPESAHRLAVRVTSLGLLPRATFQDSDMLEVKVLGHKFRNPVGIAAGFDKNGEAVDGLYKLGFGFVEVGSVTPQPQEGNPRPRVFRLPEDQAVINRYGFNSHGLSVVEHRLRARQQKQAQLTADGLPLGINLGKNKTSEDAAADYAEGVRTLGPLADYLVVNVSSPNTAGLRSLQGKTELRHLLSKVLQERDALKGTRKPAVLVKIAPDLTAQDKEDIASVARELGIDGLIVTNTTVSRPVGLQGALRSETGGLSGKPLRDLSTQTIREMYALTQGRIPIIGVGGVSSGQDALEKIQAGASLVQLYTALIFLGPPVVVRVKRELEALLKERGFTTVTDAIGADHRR

Which results are given for `CC/C(O)=C(\C#N)C(=O)Nc1ccc(OS(=O)(=O)C(F)(F)F)cc1`?
IC50 [1]: 150 nM; half-life [2]: 8 h

Which IC50 [1] does the source give for `CC/C(O)=C(\C#N)C(=O)Nc1ccc(OS(=O)(=O)C(F)(F)F)c(C(=O)OC)c1` here?
Its IC50 is 93 nM.

What about the half-life [2] of the same compound?
Its half-life is 2 h.

With `CC/C(O)=C(\C#N)C(=O)Nc1ccc(-c2ccccc2)c(C(=O)OC)c1` as the compound, how does the IC50 [1] read?
The IC50 was 73 nM.

For `CC/C(O)=C(\C#N)C(=O)Nc1ccc(-c2ccc(F)cc2)c(C(=O)OC)c1`, which half-life [3] is on record?
The half-life was 336 h.

What about the IC50 [1] of the same compound?
The IC50 was 110 nM.

What about the inhibition in vivo at 10 mg/kg [4] of the same compound?
Its inhibition in vivo at 10 mg/kg is 49%.

What about the IC50 [5] of the same compound?
Its IC50 is 350 nM.

And the half-life [2]?
The half-life was 0.9 h.

And the IC50 [6]?
The IC50 was 2000 nM.

And the metabolised at 0.5 h, 5 µM [7]?
Its metabolised at 0.5 h, 5 µM is 19%.

What about the metabolised at 0.5 h, 5 µM [8] of the same compound?
The metabolised at 0.5 h, 5 µM was 17%.

For `CC/C(O)=C(\C#N)C(=O)Nc1ccc(-c2ccccc2Cl)c(C(=O)OC)c1`, which IC50 [1] is on record?
Its IC50 is 52 nM.

For `CC/C(O)=C(\C#N)C(=O)Nc1ccc(-c2cccc(Cl)c2)c(C(=O)OC)c1`, which IC50 [1] is on record?
The IC50 was 31 nM.

And the IC50 [6]?
The IC50 was 34000 nM.

Which results are given for `CC/C(O)=C(\C#N)C(=O)Nc1ccc(-c2ccc(Cl)cc2)c(C(=O)OC)c1`?
IC50 [1]: 45 nM; IC50 [6]: 13000 nM

Which IC50 [1] does the source give for `CC/C(O)=C(\C#N)C(=O)Nc1ccc(-c2cccc(OC(F)(F)F)c2)c(C(=O)OC)c1` here?
Its IC50 is 27 nM.

What about the IC50 [6] of the same compound?
The IC50 was 37000 nM.

Which IC50 [1] does the source give for `CC/C(O)=C(\C#N)C(=O)Nc1ccc(-c2cccc(F)c2)c(C(=O)OC)c1` here?
Its IC50 is 198 nM.

Which IC50 [1] does the source give for `CC/C(O)=C(\C#N)C(=O)Nc1ccc(-c2ccc(F)cc2F)c(C(=O)OC)c1` here?
Its IC50 is 31 nM.

What about the IC50 [6] of the same compound?
The IC50 was 6000 nM.

For `CC/C(O)=C(\C#N)C(=O)Nc1ccc(-c2cccnc2)c(C(=O)OC)c1`, which IC50 [1] is on record?
Its IC50 is 40 nM.

Which IC50 [1] does the source give for `CC/C(O)=C(\C#N)C(=O)Nc1ccc(-c2ccc(F)cc2C)c(C(=O)OC)c1` here?
Its IC50 is 49 nM.

With `CC/C(O)=C(\C#N)C(=O)Nc1ccc(-c2ccc(F)nc2)c(C(=O)OC)c1` as the compound, how does the IC50 [1] read?
Its IC50 is 150 nM.

For `CC/C(O)=C(\C#N)C(=O)Nc1ccc(-c2ccc(F)c(F)c2)c(C(=O)OC)c1`, which IC50 [1] is on record?
Its IC50 is 97 nM.

Which IC50 [1] does the source give for `CC/C(O)=C(\C#N)C(=O)Nc1ccc(-c2cc(F)c(F)c(F)c2)c(C(=O)OC)c1` here?
Its IC50 is 137 nM.

What about the IC50 [6] of the same compound?
The IC50 was 19000 nM.

With `CC/C(O)=C(\C#N)C(=O)Nc1ccc(-c2ccc(F)cc2OC)c(C(=O)OC)c1` as the compound, how does the IC50 [1] read?
The IC50 was 66 nM.

Which IC50 [1] does the source give for `CCOc1cccc(-c2ccc(NC(=O)/C(C#N)=C(\O)CC)cc2C(=O)OC)c1` here?
Its IC50 is 59 nM.

Which results are given for `CC/C(O)=C(\C#N)C(=O)Nc1ccc(-c2ccc3c(c2)OCO3)c(C(=O)OC)c1`?
IC50 [1]: 76 nM; IC50 [6]: 18500 nM

Which IC50 [1] does the source give for `CC/C(O)=C(\C#N)C(=O)Nc1ccc(-c2cccc(OC)c2)c(C(=O)OC)c1` here?
The IC50 was 26 nM.

Which IC50 [1] does the source give for `CC/C(O)=C(\C#N)C(=O)Nc1ccc(-c2ccc3c(c2)OCCO3)c(C(=O)OC)c1` here?
Its IC50 is 66 nM.

Which IC50 [1] does the source give for `CC/C(O)=C(\C#N)C(=O)Nc1ccc(-c2cccc(OC(F)F)c2)c(C(=O)OC)c1` here?
Its IC50 is 34 nM.

Which IC50 [1] does the source give for `CC/C(O)=C(\C#N)C(=O)Nc1ccc(-c2cccc(OC3CCC3)c2)c(C(=O)OC)c1` here?
Its IC50 is 31 nM.

With `C/C(O)=C(\C#N)C(=O)Nc1ccc(C(F)(F)F)cc1` [TERIFLUNOMIDE] as the compound, how does the ED50 [9] read?
Its ED50 is 2.88 mg/kg.

What about the half-life [2] of the same compound?
Its half-life is 14.1 h.

What about the IC50 [6] of the same compound?
Its IC50 is 46000 nM.

What about the metabolised at 0.5 h, 5 µM [7] of the same compound?
Its metabolised at 0.5 h, 5 µM is 0%.

And the metabolised at 0.5 h, 5 µM [8]?
Its metabolised at 0.5 h, 5 µM is 3%.
